According to patent publication US20190151312A1, “HEPARAN SULFATE BIOSYNTHESIS INHIBITORS FOR THE TREATMENT OF DISEASES” (BioMarin Pharmaceutical Inc., priority 2014, published 2019):
Read-outs that look alike come from different tables or passages of the source.

System: GM01896 cells (MPS II dermal fibroblasts)
Assay: Assay 1: MPS cellular assay, MPS II (heparan sulfate disaccharide biomarkers by LC-MS)
Type: cell-based, human
Conditions: Assay 1 for MPS II, heparan sulfate disaccharide biomarkers (I2a4, I2a6, I2S0 and/or I2S6), read-out: IC50 Range
Method: Dermal fibroblasts from humans with an MPS disorder and from healthy donors are grown. Cells are expanded and kept in culture for analysis. Human foreskin fibroblasts can be obtained from the American Type Culture Collection (CRL-1634). Human dermal fibroblasts derived from biopsies of individuals are purchased from Coriell Institute: clinically healthy individuals, GM00408, GM00409, GM00200 (clinically unaffected sibling of an individual with metachromatic leukodystrophy), GM05659, GM08398, and GM15871 (clinically unaffected sibling of an individual with unclassified Ehlers-Danlos syndrome); heterozygous MPS I carriers, GM01392, GM01393 and GM0003; homozygous individuals affected with MPS I, GM06214, GM11495, GM00034, GM01391 and GM01256; individuals with MPS II, GM01896, GM03181, GM00615 and GM00298; individuals with MPS IIIA, GM00879, GM00643, GM00934, GM06110 and GM00629; MPS IIIB, GM01426; MPS IIIC, GM05157; MPS IIID, GM05093; and MPS VII, GM00121. All cells are grown in DMEM containing 50 U ml-1 penicillin, […] ml-1 streptomycin, 2 mM glutamine and 10% FBS. Cells are seeded on 15-cm-diameter tissue culture dishes, grown to confluence and maintained in culture for analysis. Sulfamidase activity in cell extracts is measured with 4-methylumbelliferyl-α-D-N-sulfoglucosaminide according the vendors instructions substituting Tris-acetate buffer (pH 6.5; Moscerdam).
Cells are treated with a compound of the invention at a concentration at or below 30 μM for 4 to 21 days. Cell monolayers are washed with phosphate buffered saline and detached by treatment with GIBCO trypsin-EDTA solution (Invitrogen). After centrifugation, the supernatant is removed and the cells are lysed in 0.5 mL of 0.1 N sodium hydroxide. The amount of protein is determined by bicinchoninic acid (BCA assay, Thermo Scientific). GAGs are isolated by anion exchange chromatography and digested with glycosaminoglycan lyases (heparinases I, II, and III, IBEX).
Enzymatically depolymerized GAG preparations are differentially mass labeled by reductive amination with [^12C6]aniline. Briefly, heparan sulfate disaccharides (1-10 pmol) are dried down in a centrifugal evaporator and reacted with [^12C6]aniline or [^13C6]aniline (15 μL, 165 μmol) and 15 μL of 1 M NaCNBH3 (Sigma-Aldrich) freshly prepared in dimethylsulfoxide/acetic acid (7:3, v/v) is added to each sample. Reactions are carried out at 37° C. for 16 h and then dried in a centrifugal evaporator. Unsubstituted amines are reacted with propionic anhydride (Sigma-Aldrich). Dried samples are reconstituted in 20 μL of 50% methanol, and 3 μL of propionic anhydride (Sigma-Aldrich, 23.3 μmol) is added. Reactions are carried out at ˜23° C. for 2 h. Acylated disaccharides are subsequently aniline tagged as described above. Each sample is mixed with commercially available standard unsaturated disaccharides (Seikagaku), standard N-sulfoglucosamine, glucosamine-6-sulfate, N-acetylgalactosamine-4-sulfate and N-acetylgalactosamine-6-sulfate (Sigma-Aldrich), and/or synthesized α-L-idopyranosyluronate-(1,4)-2-N-acetyl-2-deoxy-α/β-D-glucopyranoside (I0S0). All standards are tagged with [^13C6]aniline (Sigma-Aldrich). Samples are then analyzed by LC-MS using an LTQ Orbitrap Discovery electrospray ionization mass spectrometer (Thermo Scientific) equipped with quaternary HPLC pump (Finnigan Surveyor MS pump) and a reverse-phase capillary column as described in J. Biol. Chem. 2008, 283(48), 33674.
MPS II: Assay 1, as described above, was used to determine activity for MPS II using GM01896 cells. […] Extracted ion chromatograms were obtained. Cell viability was monitored using alamar blue or ATP quantification. IC50's were calculated using curve fitting within the ChemInnovation CBIS database system.

SMILES | IC50 (Homo sapiens, Fibroblast) [nM] | IC50 [nM]
Cc1nn(C)c2cc(-c3cc(Nc4ccc(-c5cn(C)cn5)cc4)nc(N4CCOCC4)n3)ccc12 [[6-(1,3-dimethyl(1H-indazol-6-yl))-2-morpholin-4-ylpyrimidin-4-yl][4-(1-methylimidazol-4-yl)phenyl]amine] | 1000 to 5000 | 
CNC(=O)c1ccc(Nc2cc(-c3ccc4[nH]ncc4c3)nc(N3CCOCC3)n2)cn1 [{5-[(6-(1H-indazol-5-yl)-2-morpholin-4-ylpyrimidin-4-yl)amino](2-pyridyl)}-N-methylcarboxamide] | 500 to 1000 | 
COc1ccc(Cn2cc(-c3ccc(Nc4cc(-c5ccc6c(C)nn(C)c6c5)nc(N5CCOCC5)n4)cc3)cn2)cc1 [[6-(1,3-dimethyl(1H-indazol-6-yl))-2-morpholin-4-ylpyrimidin-4-yl](4-{1-[(4-methoxyphenyl)methyl]pyrazol-4-yl}phenyl)amine] | 1000 to 5000 | 
Cc1nn(C)c2cc(-c3cc(Nc4ccc5ccn(C)c5c4)nc(N4CCOCC4)n3)ccc12 [[6-(1,3-dimethyl(1H-indazol-6-yl))-2-morpholin-4-ylpyrimidin-4-yl](1-methylindol-6-yl)amine] | < 500 | 
Cc1nn(C)c2cc(-c3cc(Nc4ccc(-c5[nH]ncc5F)cc4)nc(N4CCOCC4)n3)ccc12 [[6-(1,3-dimethyl(1H-indazol-6-yl))-2-morpholin-4-ylpyrimidin-4-yl][4-(4-fluoropyrazol-5-yl)phenyl]amine] | 500 to 1000 | 
Cc1cn(C)c2cc(Nc3cc(-c4ccc5c(CCN6CCOCC6)nn(C)c5c4)nc(N4CCOCC4)n3)ccc12 [(1,3-dimethylindol-6-yl){6-[1-methyl-3-(2-morpholin-4-ylethyl)(1H-indazol-6-yl)]-2-morpholin-4-ylpyrimidin-4-yl}amine] | 500 to 1000 | 
CN(C)CCCn1cnc2cc(-c3cc(Nc4ccc(Cl)cc4)nc(N4CCOCC4)n3)ccc21 [[3-(5-{6-[(4-chlorophenyl)amino]-2-morpholin-4-ylpyrimidin-4-yl}benzimidazolyl)propyl]dimethylamine] |  | 500 to 1000
Cn1c(CCCN2CCOCC2)nc2ccc(-c3cc(Nc4ccc(Cl)cc4)nc(N4CCOCC4)n3)cc21 [(4-chlorophenyl){6-[1-methyl-2-(3-morpholin-4-ylpropyl)benzimidazol-6-yl]-2-morpholin-4-ylpyrimidin-4-yl}amine] | 1000 to 5000 | 
Cn1cnnc1-c1ccc(Nc2cc(-c3ccc4cnn(C)c4c3)nc(N3CCOCC3)n2)cc1 [[4-(4-methyl(1,2,4-triazol-3-yl))phenyl][6-(1-methyl(1H-indazol-6-yl))-2-morpholin-4-ylpyrimidin-4-yl]amine] | 1000 to 5000 | 
CN1CCN(CCc2nn(C)c3cc(-c4cc(Nc5ccc(Cl)cc5)nc(N5CCOCC5)n4)ccc23)CC1 [(4-chlorophenyl)(6-{1-methyl-3-[2-(4-methylpiperazinyl)ethyl](1H-indazol-6-yl)}-2-morpholin-4-ylpyrimidin-4-yl)amine] | 500 to 1000 | 
CNC(=O)c1ccc(Nc2cc(-c3ccc4c(c3)ncn4CCCN3CCOCC3)nc(N3CCOCC3)n2)cc1 [N-methyl[4-({2-morpholin-4-yl-6-[1-(3-morpholin-4-ylpropyl)benzimidazol-5-yl]pyrimidin-4-yl}amino)phenyl]carboxamide] | 1000 to 5000 | 
Cn1c(CCN2CCOCC2)nc2ccc(-c3cc(Nc4ccc(Cl)cc4)nc(N4CCOCC4)n3)cc21 [(4-chlorophenyl){6-[1-methyl-2-(2-morpholin-4-ylethyl)benzimidazol-6-yl]-2-morpholin-4-ylpyrimidin-4-yl}amine] | < 500 | 
Cc1cnn(-c2ccc(Nc3cc(-c4ccc5cnn(C)c5c4)nc(N4CCOCC4)n3)cc2)n1 [[4-(4-methyl(1,2,3-triazol-2-yl))phenyl][6-(1-methyl(1H-indazol-6-yl))-2-morpholin-4-ylpyrimidin-4-yl]amine] | < 500 | 
Cn1nc(CCN2CCOCC2)c2ccc(-c3cc(Nc4ccc(-c5cocn5)cc4)nc(N4CCOCC4)n3)cc21 [{6-[1-methyl-3-(2-morpholin-4-ylethyl)(1H-indazol-6-yl)]-2-morpholin-4-ylpyrimidin-4-yl}(4-(1,3-oxazol-4-yl)phenyl)amine] | < 500 | 
Cc1ccc(Nc2cc(-c3ccc4c(c3)ncn4C)nc(N3CCOCC3)n2)cc1 [[6-(1-methylbenzimidazol-5-yl)-2-morpholin-4-ylpyrimidin-4-yl](4-methylphenyl)amine] | 500 to 1000 | 
CN(C)CCCn1ncc2ccc(-c3cc(Nc4ccc(Cl)cc4)nc(N4CCOCC4)n3)cc21 [[3-(6-{6-[(4-chlorophenyl)amino]-2-morpholin-4-ylpyrimidin-4-yl}(1H-indazolyl))propyl]dimethylamine] | 1000 to 5000 | 
Cn1ncc2ccc(-c3cc(Nc4ccc(-n5cccn5)cc4)nc(N4CCOCC4)n3)cc21 [[6-(1-methyl(1H-indazol-6-yl))-2-morpholin-4-ylpyrimidin-4-yl](4-pyrazolylphenyl)amine] |  | < 500
Cc1cc2ccc(Nc3cc(-c4ccc5c(CCN6CCOCC6)nn(C)c5c4)nc(N4CCOCC4)n3)cc2n1C [(1,2-dimethylindol-6-yl){6-[1-methyl-3-(2-morpholin-4-ylethyl)(1H-indazol-6-yl)]-2-morpholin-4-ylpyrimidin-4-yl}amine] | 500 to 1000 | 
Cn1ncc2ccc(Nc3cc(-c4ccc5cnn(C)c5c4)nc(N4CCOCC4)n3)cc21 [(1-methyl(1H-indazol-6-yl))[6-(1-methyl(1H-indazol-6-yl))-2-morpholin-4-ylpyrimidin-4-yl]amine] | 1000 to 5000 | 
Clc1ccc(Nc2cc(-c3ccc4cn[nH]c4c3)nc(N3CCOCC3)n2)cc1 [N-(4-chlorophenyl)-6-(1H-indazol-6-yl)-2-morpholinopyrimidin-4-amine] | 1000 to 5000 | 
CN1CCN(CCCn2ncc3ccc(-c4cc(Nc5ccc(Cl)cc5)nc(N5CCOCC5)n4)cc32)CC1 [(4-chlorophenyl)(6-{1-[3-(4-methylpiperazinyl)propyl](1H-indazol-6-yl)}-2-morpholin-4-ylpyrimidin-4-yl)amine] | 500 to 1000 | 
Cn1nc(CCN2CCOCC2)c2ccc(-c3cc(Nc4ccc(-c5c[nH]cn5)cc4)nc(N4CCOCC4)n3)cc21 [(4-imidazol-4-ylphenyl){6-[1-methyl-3-(2-morpholin-4-ylethyl)(1H-indazol-6-yl)]-2-morpholin-4-ylpyrimidin-4-yl}amine] | 1000 to 5000 | 
Cn1c(C2CC2)nc2ccc(-c3cc(Nc4ccc(Cl)cc4)nc(N4CCOCC4)n3)cc21 [(4-chlorophenyl)[6-(2-cyclopropyl-1-methylbenzimidazol-6-yl)-2-morpholin-4-ylpyrimidin-4-yl]amine] | 500 to 1000 | 
Cc1nn(C)c2cc(-c3cc(Nc4ccc5nn(C)nc5c4)nc(N4CCOCC4)n3)ccc12 [[6-(1,3-dimethyl(1H-indazol-6-yl))-2-morpholin-4-ylpyrimidin-4-yl](2-methyl(2-hydrobenzotriazol-5-yl))amine] |  | 1000 to 5000
CCc1nn(C)c2cc(-c3cc(Nc4ccc(Cl)cc4)nc(N4CCOCC4)n3)cnc12 [(4-chlorophenyl)[6-(3-ethyl-1-methylpyrazolo[4,5-b]pyridin-6-yl)-2-morpholin-4-ylpyrimidin-4-yl]amine] | 1000 to 5000 | 
CNC(=O)c1ccc(Nc2cc(-c3ccc4c(c3)ncn4CCN3CCOCC3)nc(N3CCOCC3)n2)cc1 [N-methyl[4-({2-morpholin-4-yl-6-[1-(2-morpholin-4-ylethyl)benzimidazol-5-yl]pyrimidin-4-yl}amino)phenyl]carboxamide] | 500 to 1000 | 
CN(C)CCCc1nn(C)c2cc(-c3cc(Nc4ccc5ccn(C)c5c4)nc(N4CCOCC4)n3)ccc12 [dimethyl[3-(1-methyl-6-{6-[(1-methylindol-6-yl)amino]-2-morpholin-4-ylpyrimidin-4-yl} (1H-indazol-3-yl))propyl]amine] | < 500 | 
